2 compounds from PMC12814185, “Receptor-Mediated Shuttling of a D‑Amino Acid Peptide Achieves High Nanomolar Cytosolic Concentrations” (Journal of the American Chemical Society, 2025) can be followed below.

The test system of data set [1] is HEK293 cells. In words: Live cell fluorescence microscopy of peptide internalization, cells without CMKLR1. It counts as cell-based. Particulars: 1 μM Cy5-labeled peptide, 6 h. How it is done: 2 Internalization of cyclic chemerin-9 conjugates. Live cell fluorescence microscopy of HEK293 and HEK293 cells stably expressed CMKLR1-eYFP. Cells were incubated with 1 μM Cy5-labeled peptide for 6 h before imaging. Blue = Hoechst33342, yellow = CMKLR1-eYFP, magenta = Cy5-peptide, scale bar ≙ 10 μm. […]
Salt Solution (HBSS, Biowest), pH 7.5) for 1 h. […]
Experiments were performed in technical duplicates and at least […]
HEK293 and HEK293_CMKLR1-eYFP cells were seeded at 15,000 cells per well into poly-ᴅ-lysine coated 96-well plates (black µCLEAR, Greiner). The next day, dilutions of the Cy5 -labeled peptides or Nutlin-3a […]
Cells were then washed and a resazurin-based cell viability […]
assay was performed. […]
Experiments […]
were performed in technical triplicates and at least twice.
Peptide internalization was evaluated by fluorescence microscopy. HEK293 and stably transfected […]
microscopy slides (ibidi). The next day, 1 µM Cy5-labeled peptides in cell culture medium were added to the cells and incubated for 6 h.
FluoroBriteTM DMEM (Gibco) with 10% FBS, 25 mM HEPES (pH 7.4) before imaging on an AxioVision Observer.Z1 microscope equipped with an apotome imaging system, an HXP120C light source, and a C-Apochromat 63x/1.20 W objective. All shown microscopy images are representative of at least two

Data set [2] relates to HEK293_CMKLR1-eYFP cells. The experiment in a line: Fluorescence correlation spectroscopy (FCS) in the cytosol. To be noted: 72 h; for cytosolic concentration, median (IQR) / cytosolic concentration, mean ± SD: FCS at 22 °C. How it is done:
(§1) 3 Quantification of Cy5-labeled peptides in the cytosol. (A) RP-HPLC (λex = 640 nm, λem = 670 nm) of cleavage products of Cy5-labeled peptides in the lysate of HEK293_CMKLR1-eYFP cells after incubation with 1 μM peptide for different durations. […] (B) Representative fluorescence correlation spectroscopy (FCS) autocorrelation curves of Cy5-labeled peptides measured in the cytosol of HEK293_CMKLR1-eYFP cells after 72 h of incubation. Measured curves were fitted with a model for hindered 3D diffusion and diffusion time t D and anomalous coefficient α were calculated from the fit. Autocorrelation data represent mean ± SD of up to 10 consecutive 5 s measurements in a single cell. (C) Intracellular concentrations of Cy5-labeled peptides after 72 h incubation calculated from the fitted autocorrelation curves obtained in HEK293_CMKLR1-eYFP, HMEC-1, and THP-1 cells. Each data point corresponds to FCS measurements from the cytosol of a single cell. Median with the interquartile range is shown. Data from three independent experiments. Statistical comparison by log-normal unpaired t test. ***p ≤ 0.001, **p ≤ 0.01, *p ≤ 0.05, ns – not significant. […] (D) Calculated diffusion coefficients from the fitted autocorrelation curves. Median with the interquartile range is shown. […]
(§2) Fluorescence correlation spectroscopy (FCS)
(§3) Cytosolic delivery was quantified by FCS as has been described previously.3–5 Stably transfected HEK293_CMKLR1-eYFP cells were seeded at 30,000 cells per well and HMEC-1 cells at 10,000 cells per well into poly-ᴅ-lysine-coated 8-well microscopy slides (ibidi) in their respective cell culture medium. THP-1 cells were resuspended in fresh cell culture medium at 100,000 cells/mL in 500 µL cell culture medium in uncoated 12-well plates. The next day, dilutions of Cy5-labeled peptides were added to the cells and incubated for 72 h. Cell membranes of HMEC-1 and THP-1 cells were stained with 20 µg/mL Alexa Fluor 488-labeled concanavalin A (Invitrogen) for 20 min to enable identification of the cytosol. Nuclei were counterstained with Hoechst33342, and cells were washed with FluoroBriteTM DMEM (Gibco) + 25 mM HEPES (pH 7.4). After washing, THP-1 cells were transferred to poly-ᴅ-lysine-coated 8-well microscopy slides and allowed to sediment and adhere for 1 h. Confocal imaging and FCS were performed at 22 °C on a TCS SP8 FALCON microscope (Leica) with a Plan-Apochromat 40x/1,10 water immersion objective and HyD single molecule detector (Leica). The 638 nm laser line was used for excitation at 0.5% power and […]

In data set [3] the test system is HMEC-1 cells. The data set is described as above. To be noted: HMEC-1, applied concentration 1000 nM, 72 h; for cytosolic concentration, mean ± SD: FCS at 22 °C. On the procedure: as §1, §2, §3
Data set [4] concerns THP-1 cells. The description is as above. Particulars: THP-1, applied concentration 1000 nM, 72 h; for cytosolic concentration, mean ± SD: FCS at 22 °C. On the procedure: as §1, §2, §3
For data set [5], the target named is T1, recombinant human GST-MDM2 (Homo sapiens, UniProt Q00987).
T1 construct: purchased R&D Systems
T1 sequence (Q00987 whole entry): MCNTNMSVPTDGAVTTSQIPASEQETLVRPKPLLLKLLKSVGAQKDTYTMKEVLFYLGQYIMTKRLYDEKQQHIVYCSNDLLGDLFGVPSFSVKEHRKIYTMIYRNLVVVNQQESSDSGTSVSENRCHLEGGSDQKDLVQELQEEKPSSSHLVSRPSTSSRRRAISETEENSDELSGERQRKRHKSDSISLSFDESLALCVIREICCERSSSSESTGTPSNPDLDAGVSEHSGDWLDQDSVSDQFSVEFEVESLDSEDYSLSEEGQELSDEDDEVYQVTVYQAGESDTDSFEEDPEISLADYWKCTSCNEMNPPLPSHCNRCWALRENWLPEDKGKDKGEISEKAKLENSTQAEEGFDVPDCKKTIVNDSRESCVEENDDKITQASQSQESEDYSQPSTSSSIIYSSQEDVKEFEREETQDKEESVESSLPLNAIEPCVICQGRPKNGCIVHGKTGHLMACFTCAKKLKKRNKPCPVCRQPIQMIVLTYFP
In words: Fluorescence polarization binding of Cy5-labeled peptides to MDM2. Particulars: 20 nM Cy5-labeled peptide, FP buffer pH 7.4, 30 min room temperature; performed twice in technical triplicates. A general note: Fluorescence polarisation rises when a labelled molecule tumbles more slowly, as on binding a larger partner.
Description: (B) Fluorescence polarization measurement of 20 nM Cy5-labeled peptides binding to recombinant human GST-MDM2.
20 nM of Cy5-labeled peptides were added to dilutions of human MDM2 (Recombinant Human GST -
MDM2/HDM2, R&D Systems) in FP buffer (50 mM tris(hydroxymethyl)aminomethane (Tris, Carl Roth),
150 mM sodium chloride (Sigma), 1 mM EDTA (Sigma), 0.01% (v/v) Tween20 (Sigma), pH 7.4) and
incubated for 30 min at room temperature. Fluorescence polarization was then measured in a Tecan
Spark plate reader (λex = 640 nm, λem = 670 nm). Measurements were performed twice in technical
triplicates. Data was then fit with Prism 10 (GraphPad) using non-linear regression with the following
solution to the quadratic binding equation 1 to obtain Kd:
𝐹𝑃 = 𝐹𝑃 + (𝐹𝑃 − 𝐹𝑃 ) ∗ 𝑐 + 𝑐 + 𝐾 − 𝑝𝑒𝑝𝑡𝑖𝑑𝑒 𝑀𝐷𝑀2 𝑑 𝑝𝑒𝑝𝑡𝑖𝑑𝑒 𝑀𝐷𝑀2

The target in data set [6] is T2, CMKLR1 (Homo sapiens, UniProt Q99788).
T2 construct: expressed in transfected cells; host or cells: COS-7 (stably transfected, CMKLR1-eYFP + Δ6Gαqi4myr)
T2 sequence (Q99788 1-373): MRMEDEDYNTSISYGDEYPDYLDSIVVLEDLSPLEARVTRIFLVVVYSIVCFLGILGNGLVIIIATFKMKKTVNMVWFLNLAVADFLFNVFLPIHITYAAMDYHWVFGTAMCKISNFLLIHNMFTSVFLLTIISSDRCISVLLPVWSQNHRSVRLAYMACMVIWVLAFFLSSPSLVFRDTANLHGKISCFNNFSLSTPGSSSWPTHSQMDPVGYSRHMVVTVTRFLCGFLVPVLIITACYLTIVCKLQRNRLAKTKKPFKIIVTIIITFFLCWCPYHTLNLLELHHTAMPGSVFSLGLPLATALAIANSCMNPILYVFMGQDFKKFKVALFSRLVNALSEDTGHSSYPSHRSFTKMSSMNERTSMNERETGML
The experiment in a line: Ca2+ flux assay in COS-7_CMKLR1-eYFP_Δ6Gαqi4myr cells. The format is cell-based. To be noted: maximum signal over baseline normalized to peptide 1, at least two independent experiments in duplicate. For orientation: Calcium flux is commonly read through the fluorescence of an indicator in the cells.
Description: (C) Activity of the cyclic chemerin-9 (cC9) derivatives at CMKLR1 tested in a Ca^2+ flux assay. Data points represent the mean ± SEM of at least two independent experiments performed in duplicate.
Calcium flux assay was performed with cells expressing CMKLR1 and the chimeric G protein Δ6Gαqi4myr.
The stably transfected COS-7_CMKLR1-eYFP_ Δ6Gαqi4myr cells were seeded at 25,000 cells per well into poly-ᴅ-lysine-coated 96-well plates (black µCLEAR, Greiner). The next day, cells were incubated with 2.3 µM Fluo-2-AM (Abcam) and 0.06% (v/v) Pluronic-F127 (Sigma) in assay buffer (2.5 mM probenecid (Sigma), 20 mM 4-(2-hydroxyethyl)-1-piperazineethanesulfonic acid (HEPES, Sigma) in Hanks' Balanced Salt Solution (HBSS, Biowest), pH 7.5) for 1 h. This solution was replaced by assay buffer, and basal Ca2+ signal (λex = 485 nm, λem = 525 nm) was measured for 20 s with a Flexstation 3 plate reader (Molecular Devices). Peptide dilutions were added, and the Ca2+ response was measured for 40 s. The maximum signal over baseline was calculated and normalized to peptide 1 (N3-cC9). Non-linear regression was performed using Prism 10 (GraphPad). Experiments were performed in technical duplicates and at least

[7] abbreviates: applied concentration 10 nM, single cells, three independent experiments.
Setting [8] is: applied concentration 1000 nM (1 μM).
The mark [9] stands for this setting: applied concentration 10000 nM (10 μM).

pEC50, pKd: −log10 of the molar value. Read-outs that look alike come from different tables or passages of the source. Where a SMILES comes first, the peptide text is derived from it. Bridges are numbered along the chain shown (N, C = ends). Roman numbers before positions name the chains, in order. Triazole bridges read from a SMILES are 1,4-linked. Where no end group is shown, it is not given here. Side-chain parts run from the residue outwards. [ ]: non-standard residue; d: D form. The star is where a group is joined. X2 = CN1C(=C/C=C/C=C/C2=[N+](CCCCCC(=O)*)c3ccc(S(=O)(=O)[O-])cc3C2(C)C)C(C)(C)c2cc(S(=O)(=O)O)ccc21; X1 = CN1C(=CC=CC=CC2=[N+](CCCCCC(=O)*)c3ccc(S(=O)(=O)[O-])cc3C2(C)C)C(C)(C)c2cc(S(=O)(=O)O)ccc21; Lys(N3) = [N-]=[N+]=NCCCC[C@H](N)C(=O)O; Cit = NC(=O)NCCC[C@H](N)C(=O)O; d(hCys) = N[C@H](CCS)C(=O)O; PEG3 = NCCOCCOCCOCCC(=O)O; Pra = C#CC[C@H](N)C(=O)O

`CC(=O)N[C@@H](CCCCn1cc(C[C@H](NC(=O)CCOCCOCCOCCNC(=O)[C@H](CCCNC(N)=O)NC(=O)[C@@H](NC(=O)[C@H](CCC(=O)O)NC(=O)CNC(=O)CNC(=O)[C@@H](CCCNC(=N)N)NC(=O)[C@@H](CC(C)C)NC(=O)[C@@H](CC(C)C)NC(=O)[C@@H](C)NC(=O)[C@@H](CCC(=O)O)NC(=O)[C@@H](Cc2ccccc2)NC(=O)[C@@H](C)NC(=O)[C@@H](CC(C)C)NC(=O)[C@H]2CCCN2C(=O)[C@@H](Cc2c[nH]c3ccccc23)NC(=O)[C@@H](Cc2c[nH]c3ccccc23)NC(=O)[C@@H](CC(=O)O)NC(=O)CCOCCOCCOCCNC(=O)CCCCC[N+]2=C(/C=C/C=C/C=C3N(C)c4ccc(S(=O)(=O)O)cc4C3(C)C)C(C)(C)c3cc(S(=O)(=O)[O-])ccc32)C(C)C)C(N)=O)nn1)C(=O)N[C@@H](Cc1ccc(O)cc1)C(=O)N[C@@H](Cc1ccccc1)C(=O)N1CCC[C@H]1C(=O)N[C@@H]1CCSSC[C@@H](C(=O)O)NC(=O)[C@H](Cc2ccccc2)NC(=O)[C@H](C)NC(=O)[C@H](Cc2ccccc2)NC(=O)[C@H](CCC(N)=O)NC1=O` [2Cy] (I: {X2-PEG3}-[dD][dW][dW][dP][dL][dA][dF][dE][dA][dL][dL][dR]GGEV[Cit][PEG3][Pra]-NH2 / II: Ac-[Lys(N3)]YFP[d(hCys)]QFAFC-OH; triazole I:19-II:1; disulfide II:5-II:10): the internalization entry in data set [1] is “did not internalize”. The “cytosolic concentration, median (IQR)” value in data set [2] (applied concentration 10 nM) is on record as 6.2 (3.1–9.1) nM; in data set [2] (applied concentration 100 nM) it was 6.8 (3.3–13.0) nM; in data set [2] (setting [8]), 43.1 (19.0–99.4) nM; in data set [2] (setting [9]), 106 nM; in data set [3], 6.4 (3.7–9.3) nM; in data set [4], 14.0 (7.1–26.6) nM. Also, the “cytosolic concentration, mean ± SD” value in data set [2] (setting [7]) worked out at 8.4 ± 7.8 nM; in data set [2] (applied concentration 100 nM), 11.6 ± 14.6 nM; in data set [2] (applied concentration 1000 nM), 78.6 ± 83.2 nM; in data set [2] (applied concentration 10000 nM), 161 ± 128 nM; in data set [3] it was 7.8 ± 5.4 nM; in data set [4], 22.7 ± 25.1 nM.
With “I: GSVSHHHHHHGGHHHH[PEG3][dK]([PEG3-X1])[dD][dW][dW][dP][dL][dA][dF][dE][dA][dL][dL][dR]GEV[Cit][PEG3][Pra]-NH2 / II: Ac-[Lys(N3)]YFP[d(hCys)]QFAFC-OH (triazole I:36-II:1; disulfide II:5-II:10) [3Cy]”, the pKd in data set [5] was 7.05. Further, the pEC50 in data set [6] (read-out: EC50) was 6.66. In data set [6] (read-out: pEC50 ± SEM (converted)), the EC50 is 219 nM. Besides, the internalization result in data set [1] is given as “very faint intracellular signals”. In addition, in data set [2] (10 μM, data not shown), the cellular stress result was “showed signs of cellular stress”. Moreover, the “cytosolic concentration, median (IQR)” value in data set [2] (applied concentration 10 nM) is listed as 5.5 (3.2–9.5) nM; in data set [2] (applied concentration 100 nM), 10.2 (5.2–32.1) nM; in data set [2] (setting [8]) it was 98.8 nM; in data set [2] (setting [9]), 228 nM; in data set [3], 7.0 (5.2–12.4) nM; in data set [4], 22.6 (12.7–38.5) nM. The “cytosolic concentration, mean ± SD” value in data set [2] (setting [7]) is 6.6 ± 5.0 nM; in data set [2] (applied concentration 100 nM), 23.5 ± 40.2 nM; in data set [2] (applied concentration 1000 nM), 138 ± 122 nM; in data set [2] (applied concentration 10000 nM) it was 308 ± 257 nM; in data set [3], 20.1 ± 57.2 nM; in data set [4], 40.3 ± 77.12 nM.

What is called pKd is −log10 of the Kd, conventionally taken in molar units. As a reminder, the pEC50 is the EC50 on a negative log10 scale, so that one unit is a factor of ten.
